Laboratory results taken from ChEMBL document CHEMBL1201862, “PubChem BioAssay data set” (2004).
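Protocol summary: plate cells (96-well), add compound at 5 concentrations, incubate 48 h, interpolate endpoints linearly. Here, GI50 denotes the concentration required for 50% inhibition of growth.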 Active and inactive are the calls of the source. Cut-off read from the data, not from the text of the source: active = GI50 up to about 1.1 µM and inactive = higher.

Legend:
Experiment in all cases: NCI anticancer screen, dose series, 48 h
SNB-78 = system: SNB-78
DMS-114 = system: DMS-114
KM-20L2 = system: KM-20L2
DLD-1 = system: DLD-1
HOP-18 = system: HOP-18
T47D = system: T47D
RXF 631 = system: RXF 631
LXFL 529 = system: LXFL 529
XF498 = system: XF498

| SMILES | GI50 (SNB-78) | GI50 (DMS-114) | GI50 (KM-20L2) | GI50 (DLD-1) | GI50 (HOP-18) | GI50 (T47D) | GI50 (RXF 631) | GI50 (LXFL 529) | GI50 (XF498) |
| --- | --- | --- | --- | --- | --- | --- | --- | --- | --- |
| C=CCCc1cc(OC)ccc1CN(C)C(C)(C)CO | > 100 µM (inactive) | > 100 µM (inactive) | > 100 µM (inactive) | > 100 µM (inactive) | > 100 µM (inactive) | – | – | – | – |
| Cc1cc2ccccc2n2c1nc1ccc(O)cc12 | – | – | – | – | – | > 10 µM (inactive) | – | – | – |
| O=C(CCc1n[nH]c(=S)o1)Nc1ccccc1C(F)(F)F | > 100 µM (inactive) | > 100 µM (inactive) | > 100 µM (inactive) | > 100 µM (inactive) | > 100 µM (inactive) | – | > 100 µM (inactive) | > 100 µM (inactive) | – |
| CCN(CC)CCNC(=O)c1cccc2nc3ccccc3nc12 | 21.4 µM (inactive) | 7.85 µM (inactive) | 13.6 µM (inactive) | > 26.7 µM (inactive) | > 26.4 µM (inactive) | – | – | 16.9 µM (inactive) | – |
| Cc1cn(Cc2cccc(C3=NCCCN3)c2)c(=O)n(Cc2cccc(C3=NCCCN3)c2)c1=O | – | – | – | – | – | > 100 µM (inactive) | – | – | – |
| COc1ccc(C2=NN(C(=O)c3ccc(Cl)cc3)C(O)(c3cc(F)c(Cl)cc3Cl)C2)cc1OC (stereo not given) | – | – | – | – | – | 6.27 µM (inactive) | – | – | – |
| O=C(/C=C1\Nc2ccc([N+](=O)[O-])cc2N\C1=C/C(=O)c1ccc(F)cc1)c1ccc(F)cc1 | – | – | – | – | – | 82.8 µM (inactive) | – | – | – |
| O=C1CCC2(O)C3Cc4ccc(Oc5nnnn5-c5ccccc5)c5c4C2(CCN3CC2CC2)C1O5 (stereo not given) | – | – | – | – | – | 39.5 µM (inactive) | – | – | – |
| COC(=O)[C@]12CC[C@H]3CN(C(=O)OCc4ccccc4)[C@H]([C@H]31)[C@H](c1ccco1)N2S(=O)(=O)c1ccc(C)cc1 | – | – | – | – | – | 27.6 µM (inactive) | – | – | – |
| COC(=O)[C@H](Cc1c[nH]c2ccccc12)NP(=O)(O)OCC1C=CC(n2cc(C)c(=O)[nH]c2=O)O1 (stereo not given in full) | – | – | – | – | – | > 100 µM (inactive) | – | – | – |
| COC(=O)c1cc(C)c(C)c2c1NC(=O)CNC2=O | > 100 µM (inactive) | > 100 µM (inactive) | > 100 µM (inactive) | > 100 µM (inactive) | – | – | – | > 100 µM (inactive) | > 100 µM (inactive) |
| CC(O)(CNS(=O)(=O)c1ccccc1)c1ccccc1 (stereo not given) | – | – | – | – | – | > 100 µM (inactive) | – | – | – |
| Sc1nnc(COc2ccc(Cl)cc2)[nH]1 | > 100 µM (inactive) | > 100 µM (inactive) | > 100 µM (inactive) | > 100 µM (inactive) | – | – | > 100 µM (inactive) | > 100 µM (inactive) | – |
| CN(C)CC1CCC(CN(C)C)C(=O)C1=O (stereo not given) | – | 6.62 µM (inactive) | 16.4 µM (inactive) | 3.05 µM (inactive) | 1.5 µM (inactive) | 2.31 µM (inactive) | – | 1.67 µM (inactive) | 2.54 µM (inactive) |
| CCOC(=O)c1c(N2CCOCC2)[nH]c(=O)c(C(c2ccc(N(C)C)cc2)c2c(O)c(C(=O)OCC)c(N3CCOCC3)[nH]c2=O)c1O | – | – | – | – | – | > 100 µM (inactive) | – | – | – |
| CCCN(CCCc1ccccc1)CCc1ccc2[nH]c(=S)[nH]c2c1 | – | – | – | – | – | 12.1 µM (inactive) | – | – | – |
| NC(=O)CC(N)c1nnn[nH]1 (stereo not given) | – | – | – | – | – | > 100 µM (inactive) | – | – | – |
| O=S(=O)(O)CCCC1S(=O)(=O)OCCOS1(=O)=O | – | – | – | – | – | > 100 µM (inactive) | – | – | – |
| CC1OC(=O)N(CCCC=C2SCCCS2)C1=O (stereo not given) | > 100 µM (inactive) | > 100 µM (inactive) | > 100 µM (inactive) | – | > 100 µM (inactive) | – | – | > 100 µM (inactive) | > 100 µM (inactive) |
| FC(F)(F)c1ccc2c(c1)nc(-c1ccccc1)n2CC1CCCN2CCCCC12 (stereo not given) | – | – | – | – | – | 20 µM (inactive) | – | – | – |
| CC1=NN(C(=O)c2ccc(Cl)cc2)C(=O)/C1=C/c1ccc(Cl)cc1 | 40.8 µM (inactive) | > 100 µM (inactive) | > 100 µM (inactive) | > 100 µM (inactive) | – | – | – | > 100 µM (inactive) | > 100 µM (inactive) |
| CC(=O)OC1CCCn2c1nc1c2C(=O)C(C)=C(N2CC2)C1=O (stereo not given) | 0.454 µM (active) | 0.771 µM (active) | 0.45 µM (active) | 0.583 µM (active) | 0.348 µM (active) | – | – | 0.614 µM (active) | 0.234 µM (active) |
| CC1=NN(C(=O)c2ccccc2O)C(=O)/C1=C/c1cccc([N+](=O)[O-])c1 | > 100 µM (inactive) | 1.66 µM (inactive) | 15.6 µM (inactive) | 0.459 µM (active) | – | 17.3 µM (inactive) | – | 0.451 µM (active) | – |
| CN(C)/N=N/c1ccc(C(N)=O)cc1 | > 100 µM (inactive) | > 100 µM (inactive) | > 100 µM (inactive) | > 100 µM (inactive) | > 100 µM (inactive) | – | – | > 100 µM (inactive) | > 100 µM (inactive) |
| CC(=O)O[C@H]1C(=O)[C@@]2(C)[C@H]([C@H](OC(=O)c3ccccc3)[C@]3(O)C[C@H](OC(=O)[C@H](O)[C@@H](NC(=O)c4ccccc4)c4ccc5ccccc5c4)C(C)=C1C3(C)C)[C@]1(OC(C)=O)CO[C@@H]1C[C@@H]2O | – | – | – | – | – | 2.16 µM (inactive) | – | – | – |
| OCCCCn1cnc2c(O)ncnc21 | > 100 µM (inactive) | > 100 µM (inactive) | > 100 µM (inactive) | > 100 µM (inactive) | > 100 µM (inactive) | – | – | > 100 µM (inactive) | – |
| O=[N+]([O-])c1cc(-[n+]2cc([O-])on2)ccc1F | – | – | – | – | – | 2.49 µM (inactive) | – | – | – |
